# How the values were obtained:
# [1] = tested on: neurons isolated from the cerebrum; assay: Veratrine-induced neuronal death suppressing action (MTT); type: cell-based, embryonic day 16 rats; conditions: Rattus norvegicus, Neuron; veratrine 0.35 mM; MTT after 24 h; probit method; read-out: IC50 (50% suppression of veratrine-induced neuronal death)
# Protocol: The action of compounds to suppress the death of neurons induced by veratrine was evaluated in terms of their effectiveness in suppressing the neuronal death as induced by direct addition of veratrine. An experiment was run by a method adapted from the method of Powells et al., J. Pharmacol. Exp. Therapeutics, 255, 1117, 1987. Specifically, neurons were isolated from the cerebrum of embryonic day 16 rats in the usual manner, suspended in a MEM medium containing 10% fetal bovine serum, seeded onto a polylysine-coated culture plate at a density of 2.5×10^5 cells per square centimeter and cultivated at 37° C. in 95% air+5% CO2. Starting on the fifth day of cultivation, treatment was conducted with 10 μM of cytosine arabinoside for 2 days and the cultivation was continued until the 12th day, when a test was run as follows. The cells were treated with a buffer solution containing veratrine (0.35 mM) and a test compound, replaced in a serum-containing medium and cultivated for another 24 h. Subsequently, the number of viable cells was determined by calorimetric quantification using 3-(4,5-dimethylthiazol-2-yl)-2,5-diphenyltetrazolium bromide (MTT). The percent suppression of neuronal death by the test compound was determined by the following formula:
# (§1) 100×(ODtest-ODcontrol)/(ODnormal-ODcontrol) (%)
# where ODtest is the number of cells (absorbance) in the group of addition of veratrine+test compound, ODcontrol is the number of cells (absorbance) in a control group of addition of veratrine, and ODnormal is the number of cells (absorbance) in a control (normal) group without addition of veratrine.
# In addition, IC50 values indicating the effectiveness in achieving 50% suppression of neuronal death were calculated by the probit method on the basis of the result from more than one concentration.
# [2] = tested on: pyramidal cells in the hippocampus CA1 region; assay: Effectiveness in gerbil model of delayed neuronal death (damage score, 4 min ischemia); type: in vivo; conditions: carotid arteries 5 min before ischemia, score 0-4
# Protocol: (§2) Specifically, the cervical part of a gerbil under anesthesia by halothane inhalation was incised along the median line to expose the carotid artery on both sides, which were occuluded with clips for 4 min and thereafter brought back to patency. After suturing the incised part, the anesthetization was turned off and the animal was brought back to keeping under normal condition. Three days after loading of cerebral ischemia, the gerbil was anesthetized by administering pentobarbital, fixed by transcardiac formalin perfusion and had the brain isolated. A coronary slice including the fimbria hippocampi was prepared from the isolated brain and stained with Cresyl Violet. The pyramidal cells in the hippocampus CA1 region were examined under an optical microscope and the degree of damage was rated by the following scores: 0, no damage; 1, slight damage; 2, moderate damage; 3, significant damage; 4, total damage. Each test compound was administered through the carotid arteries 5 min before ischemia.
# [3] = tested on: formalin induced pain reaction; assay: Effectiveness in formalin induced paw pain test; type: in vivo, mouse; conditions: for Suppression of pain reaction, Second phase / Suppression of pain reaction, First phase: oral, 30 min before formalin; for Suppression of pain reaction, Second phase: from 10 min to 45 min; for Suppression of pain reaction, First phase: within 10 min after induction
# Protocol: The effectiveness of compounds in a formalin induced pain test was studied in accordance with the method of Shibata et al., Pain, 38, 347, 1989.
# Specifically, the left hind paw of a mouse was injected subcutaneously with 25 μl of a 0.5% formalin solution and the duration of time for which the mouse licked and bit the treated foot starting just after the injection was measured with a stopwatch; the measured times were integrated for every 5 minutes and recorded. The formalin induction caused a characteristic biphase pain reaction; the pain recognized within 10 min after the induction was categorized as a first-phase pain reaction and the pain recognized from 10 min to 45 min as a second-phase reaction. The test compounds were administered orally 30 min before the injection of formalin. The percent suppression of the formalin induced pain reaction by each test compound was determined by the following formula:
# 100×(PRcontrol-PRtest)/(PRcontrol) (%)
# where PRtest is the time (sec) of pain reaction in a group administered with both formalin and the test compound and PRcontrol is the time (sec) of pain reaction in a control group subjected to formalin induction.
# [4] = tested on: pyramidal cells in the hippocampus CA1 region; assay: Effectiveness in gerbil model of delayed neuronal death (pyramidal cell count, 3 min ischemia); type: in vivo; conditions: carotid arteries 5 min before ischemia, ischemic control 58 ± 22, non-ischemic 249 ± 10, mean ± standard error, hydrochloride
# Protocol: as §2, with “The action of compounds to suppress the death of neurons in vivo was studied by the method of Murase et al., Neurosci. Lett., 149, 229, 1993 which was adapted from the method of Kirino et al., Brain Res., 239, 57, 1982. Specifically,” for “Specifically,”, “3” for “4”, “Seven” for “Three”, “counted” for “examined”, “microscope.” for “microscope and the degree of damage was rated by the following scores: 0, no damage; 1, slight damage; 2, moderate damage; 3, significant damage; 4, total damage.”
# [5] = tested on: cerebral ischemic animal models; conditions: in vivo; cited from earlier work
# [6] = tested on: hippocampus; conditions: Bode et al., cited from earlier work
# [7] = tested on: mice (ICR); assay: Acute toxicity test; type: in vivo, mouse; conditions: 100 mg/kg, intraperitoneal, 7-day observation, 3 animals per group
# [8] = tested on: neurons isolated from the cerebrum; assay: Naturally occurring neuronal death suppressing action (serum-free cultivation, Crystal Violet); type: cell-based, embryonic day 16 rats; conditions: Rattus norvegicus, Neuron, 72 h; 1.0 μg/ml; serum-free, 3 days; read-out: Suppression of Naturally Occurring Neuronal Death
# Protocol: The action of compounds to suppress the naturally occurring death of neurons was evaluated in terms of their effectiveness in suppressing or inhibiting the naturally occurring death of neurons as induced by exposing cultured neurons to serum-free cultivation conditions. An experiment was run by a method adapted from the method of Shimojo et al., Neurosci. Lett., 151, 170, 1993. Specifically, neurons were isolated from the cerebrum of embryonic day 16 rats in the usual manner, suspended in a DMEM/F12 medium containing 1% fetal bovine serum, seeded onto a polylysine-coated culture plate at a density of 5×10^4 cells per square centimeter and cultivated at 37° C. in 95% air+5% CO2. After one day of culture, the medium was replaced with a serum-free medium containing a compound to be tested and the cultivation was continued for 3 more days. Subsequently, the cells were fixed with 1% glutaraldehyde and their number was determined by calorimetric quantification using Crystal Violet (Anal. Biochem., 182, 16-19, 1989). The percent suppression of neuronal death by the test compound was determined by the following formula:
# as §1
# where ODtest is the number of cells (absorbance) in the group of addition of test compound after serum removal, ODcontrol is the number of cells (absorbance) in a control group after serum removal, and ODnormal is the number of cells (absorbance) in a control (normal) group without serum removal.
# [9] = tested on: cerebral infarction; assay: Effectiveness in rat model of permanent occlusion of middle cerebral artery; type: in vivo; conditions: 10 mg/kg, tail vein, 10 min after occlusion; 24 h; control 14.7 ± 0.8; mean ± standard error; ** p < 0.01 vs control group
# Source text: The therapeutic effect of compounds against cerebral infarction was studied in accordance with the method of Tamura et al., J. Cereb. Blood Flow Metab., 1, 53, 1981.
# Specifically, a hole was made transorbitally in part of the cranial bone of a rat under anesthesia by halothane inhalation to expose the origin of the middle cerebral artery. Then, using a bipolar coagulator, the middle cerebral arteries were burnt to coagulate for permanent occlusion. The operative site was sutured and after the anesthetization was turned off, the animal was brought back to keeping under normal condition. Twenty-four hours after loading of cerebral ischemia, the rat was decapitated and the brain was isolated. The isolated brain was cut at a predetermined site to prepare five coronary slices. The infarct area of each section was rendered visible by staining with 2,3,5-triphenyltetrazolium chloride (TTC) and quantitated with an image analyzer. A test compound was administered through the tail vein 10 min after the occlusion of the middle cerebral arteries and comparison was made with a control group administered with a solvent alone.
# [10] = 10 mg/kg, ischemic control 2.9 ± 0.3, mean ± standard error (Table 3-1)
# [11] = 10 mg/kg, ** p < 0.01 vs ischemic control group
smiles,measurement,setting,value
"Cn1c(-c2ccccc2)c2c3c(cccc31)C(N)CC2 (stereo not drawn) [Example 107, 5-amino-1-methyl-2-phenyl-1,3,4,5-tetrahydrobenz[cd]indole]",IC50,[1],0.33 µg/mL
same,Score of damage to hippocampus CA1,[2]; [10],0.5 ± 0.5
"Cl.Fc1ccccc1-c1[nH]c2cccc3c2c1CCC3N1CCOCC1 (stereo not drawn) [Example 232, 2-(2-fluorophenyl)-5-morpholino-1,3,4,5-tetrahydrobenz[cd]indole hydrochloride]",Score of damage to hippocampus CA1,"[2]; 10 mg/kg, ischemic control 3.5 ± 0.4, mean ± standard error (Table 3-2)",2.5 ± 0.7
same,"Suppression of pain reaction, Second phase",[3]; 200 mg/kg,100%
same,"Suppression of pain reaction, First phase",[3]; 200 mg/kg,51%
"Cl.Fc1ccccc1-c1[nH]c2cccc3c2c1CCC3N1CCOCC1 (single isomer, unassigned; (-)) [Example 248, (-)-2-(2-fluorophenyl)-5-morpholino-1,3,4,5-tetrahydrobenz[cd]indole hydrochloride]",Pyramidal cell count in hippocampus CA1,[4]; 2.5 mg/kg,87 ± 29 cells/mm
same,Pyramidal cell count in hippocampus CA1,[4]; [11],206 ± 14 cells/mm
O=c1[nH]c2cc(-n3ccnc3)c([N+](=O)[O-])cc2[nH]c1=O [YM90K],effectiveness in cerebral ischemic animal models (in words),[5],effective
Cc1ccc(-c2nc(C)c(CN3CCN(C(c4ccccc4)c4ccccc4)CC3)[nH]2)cc1 [lifarizine],effectiveness in cerebral ischemic animal models (in words),[5],effective
C[C@]12N[C@H](Cc3ccccc31)c1ccccc12 [dizocilpine],effectiveness in cerebral ischemic animal models (in words),[5],effective
CCCN(CCC)C1Cc2c[nH]c3ccc(OC)c(c23)C1 (stereo not drawn) [BAY-R-1531],effect on damage to the hippocampus of gerbils after brain ischemia (in words),"[6]; Stroke, 21, 1990",effective for damage to the hippocampus of gerbils after brain ischemia
same,dose of protective effect relative to dose altering patterns of behavior (in words),[6]; serotonin-like action,the protective effect of the compound was only recognized at a by far higher dose than the one that caused altered patterns of behavior due to a serotonin-like action
CN1CCN(c2ncc(-c3cc(Cl)cc(Cl)c3Cl)c(N)n2)CC1 [BW619C89],effectiveness in cerebral ischemic animal models (in words),[5],effective
"NC1CCc2c(-c3ccccc3)[nH]c3c(Cl)ccc1c23 (stereo not drawn) [Example 86, 5-amino-8-chloro-2-phenyl-1,3,4,5-tetrahydrobenz[cd]indole]",Score of damage to hippocampus CA1,"[2]; 5 mg/kg, ischemic control 2.9 ± 0.3, mean ± standard error (Table 3-1)",1.8 ± 0.1
same,death (acute toxicity),[7],no case of death was found
O=C(O)[C@@H]1C[C@H](CP(=O)(O)O)CCN1 (relative stereo) [selphotel],effectiveness in cerebral ischemic animal models (in words),[5],effective
"Cl.Fc1ccccc1-c1[nH]c2cccc3c2c1CCC3N1CCOCC1 (single isomer, unassigned; (+)) [Example 247, (+)-2-(2-fluorophenyl)-5-morpholino-1,3,4,5-tetrahydrobenz[cd]indole hydrochloride]",Pyramidal cell count in hippocampus CA1,[4]; 2.5 mg/kg,96 ± 31 cells/mm
same,Pyramidal cell count in hippocampus CA1,[4]; [11],83 ± 35 cells/mm
"Cl.Cn1c(-c2ccccc2)c2c3c(cccc31)C(N1CCOCC1)CC2 (stereo not drawn) [Example 237, 1-methyl-5-morpholino-2-phenyl-1,3,4,5-tetrahydrobenz[cd]indole hydrochloride]","Suppression of pain reaction, Second phase",[3]; 100 mg/kg,97%
same,"Suppression of pain reaction, First phase",[3]; 100 mg/kg,63%
"CC(C)=CCN1CCC2(C)c3cc(O)ccc3CC1C2C (stereo not drawn) [pentazocine, reference compound]",suppression of the first-phase pain reaction,"[3]; 10 mg/kg, subcutaneous",61%
same,suppression of the second-phase pain reaction,"[3]; 10 mg/kg, subcutaneous",40%
"NC1CCc2c(-c3ccccc3)[nH]c3cccc1c23 (stereo not drawn) [Example 81, 5-amino-2-phenyl-1,3,4,5-tetrahydrobenz[cd]indole]",inhibition at 1 µg/mL,[8],51%
same,IC50,[1],3.2 µg/mL
same,Score of damage to hippocampus CA1,[2]; [10],0.1 ± 0.1
same,Weight of infarction,[9],9.3 ± 1.5%
same,death (acute toxicity),[7],no case of death was found

# Source: US6040331A, “Nerve cell protective agents” (Mochida Pharmaceutical Co., Ltd., priority 1996, dated 2000)
